Results from patent US11098029B2, “5-alkyl pyrrolidine orexin receptor agonists” (Merck Sharp & Dohme Corp., priority 2019, dated 2021).

What follows are compounds tested against human OX2R (Homo sapiens (Human), UniProt O43614) (assay: IPOne (IP-One, Cisbio) orexin receptor agonist assay in CHO cells expressing human OX2R). Conditions: not given.
Sequence of human OX2R (O43614 whole entry): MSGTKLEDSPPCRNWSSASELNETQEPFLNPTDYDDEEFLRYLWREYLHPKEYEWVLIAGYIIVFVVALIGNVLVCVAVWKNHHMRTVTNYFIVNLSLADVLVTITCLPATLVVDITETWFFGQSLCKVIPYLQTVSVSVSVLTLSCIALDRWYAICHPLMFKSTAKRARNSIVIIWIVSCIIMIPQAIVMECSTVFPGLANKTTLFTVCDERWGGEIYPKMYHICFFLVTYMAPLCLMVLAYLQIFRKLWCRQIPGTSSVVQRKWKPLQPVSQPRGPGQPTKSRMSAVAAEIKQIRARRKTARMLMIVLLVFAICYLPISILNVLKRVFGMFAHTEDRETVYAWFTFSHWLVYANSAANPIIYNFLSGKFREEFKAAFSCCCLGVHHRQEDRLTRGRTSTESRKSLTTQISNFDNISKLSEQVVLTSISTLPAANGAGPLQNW

IC50	Compound
7.8 nM	COC(=O)N1[C@H](CC#N)C[C@H](NS(=O)(=O)N(C)C)[C@@H]1CO[C@H]1CC[C@@H](c2cccc(F)c2)CC1 [Example 52, methyl (2R,3S,5S)-5-(cyanomethyl)-3-((N,N-dimethylsulfamoyl)amino)-2-((((CIS)-4-(3-fluorophenyl)cyclohexyl)oxy)methyl)pyrrolidine-1-carboxylate]

Same assay, conditions: CHO, hOX2R_IP; percentage of mean max effect of a reference compound at 1 uM (100% activity vs Orexin A)

Compound	Emax
COC(=O)N1C(C2CC2)C[C@H](NS(C)(=O)=O)C1COC1CCC(c2ccccc2)CC1 (stereo partly drawn) [Example 44, methyl (CIS)-5-cyclopropyl-3-(methylsulfonamido)-2-((((CIS)-4-phenylcyclohexyl)oxy)methyl)pyrrolidine-1-carboxylate]	101%
CC[C@H]1C[C@@H](NS(C)(=O)=O)[C@@H](CO[C@H]2CC[C@@H](c3ccccc3)CC2)N1C(=O)OC [Example 45, methyl (2S,3R,5S)-5-ethyl-3-(methylsulfonamido)-2-((((CIS)-4-phenylcyclohexyl)oxy)methyl)-pyrrolidine-1-carboxylate]	62%
CC[C@@H]1C[C@H](NS(C)(=O)=O)[C@H](CO[C@H]2CC[C@@H](c3ccccc3)CC2)N1C(=O)OC [Example 46, methyl (2R,3S,5R)-5-ethyl-3-(methylsulfonamido)-2-((((CIS)-4-phenylcyclohexyl)oxy)methyl)pyrrolidine-1-carboxylate]	101%
COC[C@@H]1C[C@H](NS(=O)(=O)N(C)C)[C@H](CO[C@H]2CC[C@@H](c3cccc(F)c3)CC2)N1C(=O)OC [Example 51, methyl (2R,3S,5S)-3-((N,N-dimethylsulfamoyl)amino)-2-((((CIS)-4-(3-fluorophenyl)cyclohexyl)-oxy)methyl)-5-(methoxymethyl)pyrrolidine-1-carboxylate]	101%
COC(=O)N1[C@H](CC#N)C[C@H](NS(=O)(=O)N(C)C)[C@@H]1CO[C@H]1CC[C@@H](c2cccc(F)c2)CC1 [Example 52, methyl (2R,3S,5S)-5-(cyanomethyl)-3-((N,N-dimethylsulfamoyl)amino)-2-((((CIS)-4-(3-fluorophenyl)cyclohexyl)oxy)methyl)pyrrolidine-1-carboxylate]	102%
COCCS(=O)(=O)N[C@H]1C[C@@H](C)N(C(=O)OC)[C@H]1COC1CCC(c2cccc(F)c2)CC1 (some centres unmarked) [Example 61]	105%
COC(=O)N1[C@H](C)C[C@H](NS(=O)(=O)CF)[C@@H]1COC1CCC(c2cccc(F)c2)CC1 (stereo partly drawn) [Example 62, methyl (2R,3S,5R)-3-((fluoromethyl)sulfona-mido)-2-((((1s,4S)-4-(3-fluorophenyl)cyclohex-yl)oxy)methyl)-5-methylpyrrolidine-1-carboxylate]	98%

The next lines start with the values.

Emax	Compound
101%	CCc1ccccc1[C@H]1CC[C@@H](OC[C@H]2[C@@H](NS(=O)(=O)N(C)C)C[C@@H](C)N2C(=O)OC)CC1 [Example 65, Methyl (2R,3S,5R)-3-((N,N-dimethylsulfamoyl)amino)-2-((((1s,4S)-4-(2-ethylphenyl)cyclohexyl)oxy)methyl)-5-methylpyrrolidine-1-carboxylate]
100%	CCc1ccccc1[C@H]1CC[C@H](OC[C@H]2[C@@H](NS(=O)(=O)N(C)C)C[C@@H](C)N2C(=O)OC)CC1 [Example 66, methyl (2R,3S,5R)-3-((N,N-dimethylsulfamoyl)amino)-2-((((1r,4R)-4-(2-ethylphenyl)cyclohexyl)oxy)methyl)-5-methylpyrrolidine-1-carboxylate]
101%	COC(=O)N1[C@H](C)C[C@H](NS(C)(=O)=O)[C@@H]1CO[C@H]1CC[C@@H](c2ccc(F)c(F)c2)CC1 [Example 73, Methyl (2R,3S,5R)-2-((((1s,4S)-4-(3,4-difluorophenyl)cyclohexyl)oxy)methyl)-5-methyl-3-(methylsulfonamido)pyrrolidine-1-carboxylate]

Same assay, conditions: hOX2R_IP; percentage of mean max effect of a reference compound at 1 uM (100% activity vs Orexin A)

Compound	Emax (%)
CCC1CC(NS(C)(=O)=O)C(CO[C@H]2CC[C@@H](c3ccccc3)CC2)N1C(=O)OC (stereo partly drawn) [Example 40, methyl (CIS)-5-ethyl-3-(methylsulfonamido)-2-((((CIS)-4-phenylcyclohexyl)oxy)-methyl)pyrrolidine-1-carboxylate]	100%
COC(=O)N1C(CCO)CC(NS(C)(=O)=O)C1CO[C@H]1CC[C@@H](c2ccccc2)CC1 (stereo partly drawn) [Example 49, methyl (CIS)-5-(2-hydroxyethyl)-3-(methylsulfonamido)-2-((((CIS)-4-phenylcyclohexyl)oxy)methyl)pyrrolidine-1-carboxylate]	102%
COC(=O)N1C(CO)CC(NS(C)(=O)=O)C1CO[C@H]1CC[C@@H](c2ccccc2)CC1 (stereo partly drawn) [Example 50, methyl (CIS)-5-(hydroxymethyl)-3-(methylsulfonamido)-2-((((CIS)-4-phenylcyclohexyl)oxy)-methyl)pyrrolidine-1-carboxylate]	101%
COC(=O)N1[C@H](C)C[C@H](NS(=O)(=O)N(C)CC#N)[C@@H]1CO[C@H]1CC[C@@H](c2cccc(F)c2)CC1 [Example 53, Methyl (2R,3S,5R)-3-((N-(cyanomethyl)-N-methylsulfamoyl)amino)-2-((((1s,4S)-4-(3-fluorophenyl)cyclohexyl)oxy)methyl)-5-methylpyrrolidine-1-carboxylate]	102%
COC(=O)N1[C@H](C)C[C@H](NS(=O)(=O)N(C)CCC#N)[C@@H]1CO[C@H]1CC[C@@H](c2cccc(F)c2)CC1 [Example 54, methyl (2R,3S,5R)-3-((N-(2-cyanoethyl)-N-methylsulfamoyl)amino)-2-((((1s,4S)-4-(3-fluorophenyl)cyclohex-yl)oxy)methyl)-5-methylpyrrolidine-1-carboxylate]	98%
COCCN(C)S(=O)(=O)N[C@H]1C[C@@H](C)N(C(=O)OC)[C@H]1CO[C@H]1CC[C@@H](c2cccc(F)c2)CC1 [Example 55, methyl (2R,3S,5R)-2-((((1s,4S)-4-(3-fluorophenyl)cyclohex-yl)oxy)methyl)-3-((N-(2-methoxyethyl)-N-methylsulfamoyl)amino)-5-methylpyrrolidine-1-carboxylate]	100%
COC(=O)N1[C@H](C)C[C@H](NS(=O)(=O)N(C)CCO)[C@@H]1CO[C@H]1CC[C@@H](c2cccc(F)c2)CC1 [Example 56, methyl (2R,3S,5R)-2-((((1s,4S)-4-(3-fluorophenyl)cyclohex-yl)oxy)methyl)-3-((N-(2-hydroxyethyl)-N-methylsulfamoyl)amino)-5-methylpyrrolidine-1-carboxylate]	101%
COC(=O)N1[C@H](C)C[C@H](NS(=O)(=O)N(C)CCS(C)(=O)=O)[C@@H]1COC1CCC(c2cccc(F)c2)CC1 (stereo partly drawn) [Example 57, methyl (2R,3S,5R)-2-((((1s,4S)-4-(3-fluorophenyl)cyclohex-yl)oxy)methyl)-5-methyl-3-((N-methyl-N-(2-(methyslulfonyl)-ethyl)sulfamoyl)amino) pyrrolidine-1-carboxylate]	100%
COC(=O)N1[C@H](C)C[C@H](NS(=O)(=O)N(C)CC2CS(=O)(=O)C2)[C@@H]1CO[C@H]1CC[C@@H](c2cccc(F)c2)CC1 [Example 58, methyl (2R,3S,5R)-3-((N-((1,1-dioxidothietan-3-yl)methyl)-N-methylsulfamoyl)amino)-2-((((1s,4S)-4-(3-fluorophenyl)cyclohex-yl)oxy)methyl)-5-methylpyrrolidine-1-carboxylate]	101%
COC(=O)N1[C@H](C)C[C@H](NS(=O)(=O)N(C)CCOC(F)(F)F)[C@@H]1CO[C@H]1CC[C@@H](c2cccc(F)c2)CC1 [Example 59, methyl (2R,3S,5R)-2-((((1s,4S)-4-(3-fluorophenyl)cyclohex-yl)oxy)methyl)-5-methyl-3-((N-methyl-N-(2-(trifluoromethoxy)ethyl)sulfamoyl)amino)pyrro-lidine-1-carboxylate]	99%
COC(=O)N1[C@H](C)C[C@H](NS(=O)(=O)CC(F)F)[C@@H]1CO[C@H]1CC[C@@H](c2cccc(F)c2)CC1 [Example 60, Methyl (2R,3S,5R)-3-((2,2-difluoroethyl)sulfonamido)-2-((((1s,4S)-4-(3-fluorophenyl)-cyclohexyl)oxy)methyl)-5-methylpyrrolidine-1-carboxylate]	99%
methyl (CIS)-5-ethynyl-3-(methylsulfonamido)-2-((((CIS)-4-phenylcyclohexyl)oxy)methyl)-pyrrolidine-1-carboxylate [Example 47]	101%

The next lines start with the values.

Emax (%)	Compound
100%	COC(=O)N1[C@H](C)C[C@H](NS(=O)(=O)N(C)C)[C@@H]1CO[C@H]1CC[C@@H](c2ccc(C#N)c(C)c2)CC1 [Example 63, Methyl (2R,3S,5R)-2-((((1s,4S)-4-(4-cyano-3-methylphenyl)cyclohexyl)oxy)methyl)-3-((N,N-dimethylsulfamoyl)amino)-5-methylpyrrolidine-1-carboxylate]
99%	COC(=O)N1[C@H](C)C[C@H](NS(=O)(=O)N(C)C)[C@@H]1CO[C@H]1CC[C@H](c2ccc(C#N)c(C)c2)CC1 [Example 64, Methyl (2R,3S,5R)-2-((((1r,4R)-4-(4-cyano-3-methylphenyl)cyclohexyl)oxy)methyl)-3-((N,N-dimethylsulfamoyl)amino)-5-methylpyrrolidine-1-carboxylate]
98%	COC(=O)N1[C@H](C)C[C@H](NS(C)(=O)=O)[C@@H]1CO[C@H]1CC[C@H](c2ncccn2)CC1 [Example 69, Methyl (2R,3S,5R)-5-methyl-3-(methylsulfonamido)-2-((((1r,4R)-4-(pyrimidin-2-yl)cyclohexyl)oxy)methyl)pyrrolidine-1-carboxylate]
99%	COC(=O)N1[C@H](C)C[C@H](NS(C)(=O)=O)[C@@H]1CO[C@H]1CC[C@@H](c2ncccn2)CC1 [Example 70, Methyl (2R,3S,5R)-5-methyl-3-(methylsulfonamido)-2-((((1s,4S)-4-(pyrimidin-2-yl)cyclohexyl)oxy)methyl)pyrrolidine-1-carboxylate]
102%	COC(=O)N1[C@H](C)C[C@H](NS(C)(=O)=O)[C@@H]1CO[C@H]1CC[C@@H](c2cc(F)cc(F)c2)CC1 [Example 71, Methyl (2R,3S,5R)-2-((((1s,4S)-4-(3,5-difluorophenyl)cyclohexyl)oxy)methyl)-5-methyl-3-(methylsulfonamido)pyrrolidine-1-carboxylate]
100%	COC(=O)N1[C@H](C)C[C@H](NS(C)(=O)=O)[C@@H]1CO[C@H]1CC[C@H](c2cc(F)cc(F)c2)CC1 [Example 72, Methyl (2R,3S,5R)-2-((((1r,4R)-4-(3,5-difluorophenyl)cyclohexyl)oxy)methyl)-5-methyl-3-(methylsulfonamido)pyrrolidine-1-carboxylate]
